Assay [1] has as its system Xenopus tadpoles, stage 59-60. The assay is described as follows: Xenopus tadpole assay. The note with it: for Pharmacologic similarity in tadpole assay: in vivo.
The test system of assay [2] is chick embryo vitelline capillaries. The experiment in a line: Chick embryo vitelline capillary regression assay. More on the design: key to Vitelline capillary regression: +: Vascular reactivity; 0: No vascular reactivity; +/-: Equivocal reactivity. Format: in vivo. Here is the method: Using the chick embryo vitelline capillaries assay, compounds were tested for their ability to induce capillary regression. Each compound was applied in 0.1 ml of 15% Ficol 400 and PBS onto the embryo, and vascular regression was assessed after 60 minutes.
The 3-day chick embryo consists of an embryonic disc from which numerous vessels emerge and return, forming a "FIG. 8"-shaped structure--the embryo in the center with vascular loops extending outward over both poles. […] Following a lag period of around 15 minutes, the constriction of continuity between capillary and secondary vessels, generally on the "venous" side, was observed. Continued pulsatile blood flow progressed, resulting in a "swelling" of the blind tube, followed by a pinching off of the remaining connection and formation of an enclosed vascular sac resembling a "blood island." This process progressed until only the largest vessels remained intact.

Another assay concerns HM. The experiment in a line: HM MTT assay. Type of assay: cell-based. The note with it: Table II; read-out: HM MTT assay, Minimum Effective Concentration.

Entries after “also recorded” stand apart in the source; their conditions may differ.

For the molecule `CC(COS(=O)(=O)O)C(=O)CC[C@@H](C)[C@H]1CC[C@H]2[C@@H]3[C@H](O)C[C@H]4C[C@@H](NCCCNCCCCN)CC[C@]4(C)[C@H]3CC[C@]12C` (single isomer, unassigned) [Compound 1360], the “Tadpole assay, observed effects” value in assay [1] (10 μg/ml) is “Swelling and lysis of certain erythrocytes occurred; also recorded: extensive vasocclusion occurred within 60 minutes throughout the tail”. The Vitelline capillary regression in assay [2] (1 μg applied) stood at 0. Besides, in assay [2] (3- to 5-day chick embryo), the “Effect on chick embryo vessels” value is “the blood circulating through the embryonic vessels exhibited a brighter red color, reflecting a higher degree of oxygenation”.

Turning to `CC(C)CCC[C@@H](C)[C@H]1CC[C@H]2[C@@H]3CC[C@H]4C[C@@H](NCCCNCCCCN)CC[C@]4(C)[C@H]3CC[C@]12C` [Compound 303], the Vitelline capillary regression in assay [2] (1 μg applied) was determined as 0.

As for `C[C@H](CCC(=O)O)[C@H]1CC[C@H]2[C@@H]3CC[C@H]4C[C@H](NCCCNCCCCN)CC[C@]4(C)[C@H]3CC[C@]12C` [Compound 318], the Vitelline capillary regression in assay [2] (1 μg applied) is on record as 0.

Take `CC(C)CCC[C@@H](C)[C@H]1CC[C@H]2[C@@H]3[C@H](O)C[C@H]4C[C@@H](N)CC[C@]4(C)[C@H]3CC[C@]12C` [Compound 364]: the Vitelline capillary regression in assay [2] (0.001 μg applied) is listed as 0; in assay [2] (0.01 μg applied), 0; in assay [2] (0.1 μg applied), 0; in assay [2] (1 μg applied), “+”; in assay [2] (10 μg applied), “+”. The “Chick embryo diss. assay, Minimum Effective Concentration” value in assay [2] (Table II) amounted to 1 µg.

In the case of `CC(C)CCC[C@@H](C)[C@H]1CC[C@H]2[C@@H]3[C@H](O)C[C@H]4C[C@H](NCCCNCCCCN)CC[C@]4(C)[C@H]3CC[C@]12C` [Compound 370], the “Pharmacologic similarity in tadpole assay” value (“Pharmacologic similarity” below) in assay [1] was “pharmacologic activity similar to that seen for FX 3”.

Take `CC(C)CCC[C@@H](C)[C@H]1CC[C@H]2[C@@H]3[C@H](O)C[C@H]4C[C@@H](NCCCNCCCCN)CC[C@]4(C)[C@H]3CC[C@]12C` [Compound 371]: in assay [1], the “Pharmacologic similarity” value is given as “effects like those produced by compound 1436”. For the same molecule, the Vitelline capillary regression in assay [2] (0.001 μg applied) is given as 0; in assay [2] (0.01 μg applied) it was 0; in assay [2] (0.1 μg applied), 0; in assay [2] (1 μg applied) it was “+/-”; in assay [2] (10 μg applied), “+”.

On to `C[C@H](CCC(=O)O)[C@H]1CC[C@H]2[C@@H]3[C@H](O)C[C@H]4C[C@@H](NCCCNCCCCN)CC[C@]4(C)[C@H]3CC[C@]12C` [Compound 381], for which, in assay [2] (1 μg applied), the Vitelline capillary regression is on record as 0.

In the case of `C[C@H](CCC(=O)O)[C@H]1CC[C@H]2[C@@H]3[C@H](O)C[C@H]4C[C@H](NCCCNCCCCN)CC[C@]4(C)[C@H]3CC[C@]12C` [Compound 382], the Vitelline capillary regression in assay [2] (0.001 μg applied) is listed as 0; in assay [2] (0.01 μg applied) it was 0; in assay [2] (0.1 μg applied) it was 0; in assay [2] (1 μg applied), “+”; in assay [2] (10 μg applied), “+”.

As to `COC(=O)CC[C@@H](C)[C@H]1CC[C@H]2[C@@H]3[C@H](O)C[C@H]4C[C@@H](NCCCNCCCCNCCCN)CC[C@]4(C)[C@H]3CC[C@]12C` [Compound 396], the Vitelline capillary regression in assay [2] (0.001 μg applied) is given as 0; in assay [2] (0.01 μg applied), 0; in assay [2] (0.1 μg applied), 0; in assay [2] (1 μg applied), “+”.

In the case of `COC(=O)CC[C@@H](C)[C@H]1CC[C@H]2[C@@H]3[C@H](O)C[C@@H]4C[C@@H](NCCN)CC[C@]4(C)[C@H]3CC[C@]12C` [Compound 409], in assay [1], the “Pharmacologic similarity” value is “functionally similar to compound 1437”. The Vitelline capillary regression in assay [2] (1 μg applied) is 0.

Turning to `COC(=O)CC[C@@H](C)[C@H]1CC[C@H]2[C@@H]3[C@H](O)C[C@@H]4C[C@@H](NCCCNCCCCNCCCN)CC[C@]4(C)[C@H]3CC[C@]12C` [Compound 411], the Vitelline capillary regression is 0 in assay [2] (0.001 μg applied), 0 in assay [2] (0.01 μg applied), 0 in assay [2] (0.1 μg applied) and “+/-” in assay [2] (1 μg applied).

As to `C[C@H](CCC(=O)O)[C@H]1CC[C@H]2[C@@H]3[C@H](O)C[C@@H]4C[C@@H](NCCCNCCCCNCCCN)CC[C@]4(C)[C@H]3CC[C@]12C` [Compound 413], the “Pharmacologic similarity” value in assay [1] was “effects like those produced by compound 1436”. In assay [2] (1 μg applied), the Vitelline capillary regression amounted to 0.

As for `C[C@H](CCC(=O)O)[C@H]1CC[C@H]2[C@@H]3[C@H](O)C[C@@H]4C[C@H](NCCN)CC[C@]4(C)[C@H]3CC[C@]12C` [Compound 414], the “Pharmacologic similarity” value in assay [1] is “potencies comparable to that of Fraction 1”. Besides, the Vitelline capillary regression in assay [2] (1 μg applied) amounted to 0.

Turning to `C[C@H](CCC(=O)O)[C@H]1CC[C@H]2[C@@H]3[C@H](O)C[C@@H]4C[C@@H](NCCN)CC[C@]4(C)[C@H]3CC[C@]12C` [Compound 415], the Vitelline capillary regression in assay [2] (0.001 μg applied) was 0; in assay [2] (0.01 μg applied), “+”; in assay [2] (0.1 μg applied), “+”; in assay [2] (1 μg applied) it was “+”.

As for `COC(=O)CC[C@@H](C)[C@H]1CC[C@H]2[C@@H]3CC[C@@H]4C[C@H](NCCN)CC[C@]4(C)[C@H]3C[C@H](O)[C@]12C` [Compound 416], the minimal effective concentration with HM stood at 2.4 µg/mL. Also, the “Pharmacologic similarity” value in assay [1] was “functionally similar to compound 1437”.

Regarding `COC(=O)CC[C@@H](C)[C@H]1CC[C@H]2[C@@H]3C[C@@H](O)[C@H]4C[C@H](NCCN)CC[C@]4(C)[C@H]3CC[C@]12C` [Compound 431], the “Pharmacologic similarity” value in assay [1] is recorded as “functionally similar to compound 1437”.

Consider `COC(=O)CC[C@@H](C)[C@H]1CC[C@H]2[C@@H]3C[C@@H](O)[C@H]4C[C@@H](NCCN)CC[C@]4(C)[C@H]3CC[C@]12C` [Compound 432], for which the “Pharmacologic similarity” value in assay [1] is reported as “functionally similar to compound 1437”.

On to `C[C@H](CCC(=O)O)[C@H]1CC[C@H]2[C@@H]3C[C@@H](O)[C@H]4C[C@@H](NCCN)CC[C@]4(C)[C@H]3CC[C@]12C` [Compound 433], for which the “Pharmacologic similarity” value in assay [1] is reported as “functionally similar to compound 1437”.

On to `COC(=O)CC[C@@H](C)[C@H]1CC[C@H]2[C@@H]3CC[C@H]4C[C@H](NCCCNCCCCNCCCN)CC[C@]4(C)[C@H]3CC[C@]12C` [Compound 458], for which the minimal effective concentration in the assay on HM was 6.8 µg/mL. The “Pharmacologic similarity” value in assay [1] is listed as “pharmacologic activity similar to that seen for FX 3”.

As to `COC(=O)CC[C@@H](C)[C@H]1CC[C@H]2[C@@H]3CC[C@H]4C[C@@H](NCCCNCCCCNCCCN)CC[C@]4(C)[C@H]3CC[C@]12C` [Compound 459], the minimal effective concentration in the assay with HM came out at 5 µg/mL. For the same molecule, the “Pharmacologic similarity” value in assay [1] is “pharmacologic activity similar to that seen for FX 3”.

For the molecule `COC(=O)CC[C@@H](C)[C@H]1CC[C@H]2[C@@H]3C[C@@H](O)[C@H]4C[C@H](NCCCNCCCCNCCCN)CC[C@]4(C)[C@H]3CC[C@]12C` [Compound 465], the “Pharmacologic similarity” value in assay [1] is on record as “pharmacologic activity similar to that seen for FX 3”.

As to `COC(=O)CC[C@@H](C)[C@H]1CC[C@H]2[C@@H]3C[C@@H](O)[C@H]4C[C@@H](NCCCNCCCCNCCCN)CC[C@]4(C)[C@H]3CC[C@]12C` [Compound 466], the “Pharmacologic similarity” value in assay [1] was “pharmacologic activity similar to that seen for FX 3”.

Regarding `CC(C)CCC[C@@H](C)[C@H]1CC[C@H]2[C@@H]3[C@H](O)C[C@H]4C[C@H](N)CC[C@]4(C)[C@H]3CC[C@]12C` [Compound 1363], the “Pharmacologic similarity” value in assay [1] is “potencies comparable to that of Fraction 1”.

(Values after patent US5840936A, “Aminosterol compounds useful as inhibitors of the sodium/proton exchanger (NHE)” (priority 1995, dated 1998).)
